According to patent publication US7157083B2, “Compositions and methods for treating retroviral infections” (priority 1998, dated 2007):

Test system: clinical isolate ROJO (low passage HIV-1) in human PBMCs
Assay: Study 1 PBMC assay: reverse transcriptase activity after ROJO infection (Treatments A, B, C)
Type: cell-based
Description: Percent virus control (% VC) in the following tables is the mean RT activity (cpm) as a percentage of a virus control. Percent cell control (% CC) is the mean XTT absorbance as a percentage of a cell control.
Peripheral blood monocular cells (PBMCs) are obtained from normal hepatitis and HIV-1 negative donors by ficoll hypaque gradient separation. Briefly, anti-coagulated blood is diluted 1:1 with Dulbecco's phosphate buffered saline without Ca^++ and Mg^++ (PBS) and layered over 14 mL of Lymphocyte separation media in a 50 ml centrifuge tube. Tubes are then centrifuged for 30 minutes at 600× g. Banded PBLs are gently aspirated from the resulting interface and subsequently washed 2× with PBS by low speed centrifugation. The mononuclear cells are counted, viability determined by Trypan Blue dye exclusion and resuspended in RPM1640 medium supplemented with 15% FBS (heat inactivated), 2 mM L-glutamine, 100 U/mL penicillin, 100 μg/mL streptomycin, and 10 μg/mL gentamycin with 2 μg/mL phytohemagluttin (PHA) at 1×10^6 cells/mL. The cells are cultured for 48 to 72 h at 37° C., 5% CO2 Following incubation, cells are collected by centrifugation, washed and resuspended in RPMI 1640 supplemented with 15% FBS (heat inactivated), 2 Mm L-glutamine, 100 U/mL penicillin, 100 μg/mL streptomycin, and 10 μg/mL gentamycin with 20 U/mL recombinant IL-2 (R & D Systems, Minneapolis, Minn.). IL-2 is included in the culture medium to maintain the cell division initiated by the PHA mitogenic stimulation. The cultures are then maintained until use by ½ culture volume change with fresh IL-2 containing medium every 3 days.
Human peripheral blood mononuclear cells from a minimum of 2 donors, that have been blasted with PHA and IL-2, are counted, viability determined by Trypan Blue dye exclusion and mixed in equal ratios. Pooled donors are used to minimize the variability observed between individual donors which results from quantitative and qualitative differences in HIV infection and overall response to the PHA and IL-2 of primary lymphocyte populations. The cells are resuspended at 1×10^6 cells/mL in RPMI 1640 without phenol red supplemented with 15% Fetal Bovine Serum (heat inactivated), 2 mM L-glutamine, 100 U/mL penicillin, 100 μg/mL streptomycin, 10 μg/mL gentamycin and IL-2 (20 U/mL, R&D Systems, Minneapolis, Minn.). Fifty microliters of cells are then distributed to the inner 60 wells of a 96 well round bottom Microtiter culture plate in a standard format developed by the Infectious Disease Research department of Southern Research Institute. Each plate contains cell control wells (cells only), virus control wells (cell plus virus), and experimental wells (drug plus cells plus virus).
Using an in-house computer program, IC50 (50% inhibition of virus replication), TC50 (50% reduction in cell viability) and a therapeutic index (TI, […]) were determined. AZT was used as a relevant positive control compound for the individual assays.
This study compares the ability of hyaluronidase to AZT to lower viral replication as measured by reverse transcriptase levels. RT was measured on days 7, 14, and 21. Three different treatment regimens were used in the comparative study (Treatments A, B and C).
Treatment A. Normal mixed PHA blasted human PBMCs (5×10e4/well) were pretreated with drug every 48 hours for 3 doses. On day 6 of pretreatment, cells were infected with clinical isolate ROJO. 48 hours post infection, treatment with drugs continued for an additional 3 treatments. Samples for assay were collected on D7 (day 7), 14, 21, post infection, frozen and later analyzed for reverse transcriptase.
Treatment B. Normal mixed PHA blasted human PBMCs (as above) were plated in 96 wells and allowed to incubate for 48 hours (cells were set at same time as treatment A from same pool). Drug pretreatment started on day 2 and was repeated on day 4. On day 6, cell were infected as in treatment A, with concurrent addition of drug for a total of 3 treatments. […]

`Cc1cn([C@H]2C[C@H](N=[N+]=[N-])[C@@H](CO)O2)c(=O)[nH]c1=O` [AZT, reference compound] was tested, and the “RT activity % VC” value (Treatment A, 0.00017 μM, Day 7) was 47.3%, the “RT activity % VC” value (Treatment A, 0.00017 μM, Day 14) was 115.4% and the “RT activity % VC” value (Treatment A, 0.00017 μM, Day 21) was 164.5%. The “RT activity % VC” value (Treatment A, 0.00054 μM, Day 7) was 19.3%, the “RT activity % VC” value (Treatment A, 0.00054 μM, Day 14) was 99.8% and the “RT activity % VC” value (Treatment A, 0.00054 μM, Day 21) was 141.5%. For the same molecule, the “RT activity % VC” value (Treatment A, 0.00168 μM, Day 7) was 25.1%, the “RT activity % VC” value (Treatment A, 0.00168 μM, Day 14) was 74.2% and the “RT activity % VC” value (Treatment A, 0.00168 μM, Day 21) was 135.6%. For the same molecule, the “RT activity % VC” value (Treatment A, 0.00524 μM, Day 7) was 10.2%, the “RT activity % VC” value (Treatment A, 0.00524 μM, Day 14) was 78.3% and the “RT activity % VC” value (Treatment A, 0.00524 μM, Day 21) was 155.1%. For the same molecule, the “RT activity % VC” value (Treatment A, 0.01638 μM, Day 7) was 11.6%, the “RT activity % VC” value (Treatment A, 0.01638 μM, Day 14) was 57.9% and the “RT activity % VC” value (Treatment A, 0.01638 μM, Day 21) was 129.5%. For the same molecule, the “RT activity % VC” value (Treatment A, 0.0512 μM, Day 7) was 3.0%, the “RT activity % VC” value (Treatment A, 0.0512 μM, Day 14) was 40.7% and the “RT activity % VC” value (Treatment A, 0.0512 μM, Day 21) was 134.8%. The “RT activity % VC” value (Treatment A, 0.16 μM, Day 7) was 2.7%, the “RT activity % VC” value (Treatment A, 0.16 μM, Day 14) was 40.3% and the “RT activity % VC” value (Treatment A, 0.16 μM, Day 21) was 126.3%. For the same molecule, the “RT activity % VC” value (Treatment A, 0.5 μM, Day 7) was 2.3%, the “RT activity % VC” value (Treatment A, 0.5 μM, Day 14) was 21.4% and the “RT activity % VC” value (Treatment A, 0.5 μM, Day 21) was 78.3%. For the same molecule, the “RT activity % VC” value (Treatment A, 5.5E-05 μM, Day 7) was 77.0%, the “RT activity % VC” value (Treatment A, 5.5E-05 μM, Day 14) was 100.4% and the “RT activity % VC” value (Treatment A, 5.5E-05 μM, Day 21) was 159.7%. For the same molecule, the “RT activity % VC” value (Treatment B, 0.00017 μM, Day 7) was 43.6%, the “RT activity % VC” value (Treatment B, 0.00017 μM, Day 14) was 80.8% and the “RT activity % VC” value (Treatment B, 0.00017 μM, Day 21) was 129.8%. The “RT activity % VC” value (Treatment B, 0.00054 μM, Day 7) was 34.2%, the “RT activity % VC” value (Treatment B, 0.00054 μM, Day 14) was 70.1% and the “RT activity % VC” value (Treatment B, 0.00054 μM, Day 21) was 111.8%. The “RT activity % VC” value (Treatment B, 0.00168 μM, Day 7) was 10.7%, the “RT activity % VC” value (Treatment B, 0.00168 μM, Day 14) was 57.5% and the “RT activity % VC” value (Treatment B, 0.00168 μM, Day 21) was 153.5%. For the same molecule, the “RT activity % VC” value (Treatment B, 0.00524 μM, Day 7) was 9.3%, the “RT activity % VC” value (Treatment B, 0.00524 μM, Day 14) was 51.0% and the “RT activity % VC” value (Treatment B, 0.00524 μM, Day 21) was 109.0%. The “RT activity % VC” value (Treatment B, 0.01638 μM, Day 7) was 9.6%, the “RT activity % VC” value (Treatment B, 0.01638 μM, Day 14) was 58.0% and the “RT activity % VC” value (Treatment B, 0.01638 μM, Day 21) was 133.9%. For the same molecule, the “RT activity % VC” value (Treatment B, 0.0512 μM, Day 7) was 5.4%, the “RT activity % VC” value (Treatment B, 0.0512 μM, Day 14) was 28.5% and the “RT activity % VC” value (Treatment B, 0.0512 μM, Day 21) was 158.0%. The “RT activity % VC” value (Treatment B, 0.16 μM, Day 7) was 3.9%, the “RT activity % VC” value (Treatment B, 0.16 μM, Day 14) was 25.7% and the “RT activity % VC” value (Treatment B, 0.16 μM, Day 21) was 93.8%. For the same molecule, the “RT activity % VC” value (Treatment B, 0.5 μM, Day 7) was 5.4%, the “RT activity % VC” value (Treatment B, 0.5 μM, Day 14) was 9.5% and the “RT activity % VC” value (Treatment B, 0.5 μM, Day 21) was 87.5%. For the same molecule, the “RT activity % VC” value (Treatment B, 5.5E-05 μM, Day 7) was 90.9%, the “RT activity % VC” value (Treatment B, 5.5E-05 μM, Day 14) was 97.0% and the “RT activity % VC” value (Treatment B, 5.5E-05 μM, Day 21) was 163.3%. The “RT activity % VC” value (Treatment C, 0.00017 μM, Day 7) was 67.5%, the “RT activity % VC” value (Treatment C, 0.00017 μM, Day 14) was 92.9% and the “RT activity % VC” value (Treatment C, 0.00017 μM, Day 21) was 110.1%. For the same molecule, the “RT activity % VC” value (Treatment C, 0.00054 μM, Day 7) was 73.6%, the “RT activity % VC” value (Treatment C, 0.00054 μM, Day 14) was 92.3% and the “RT activity % VC” value (Treatment C, 0.00054 μM, Day 21) was 106.2%. For the same molecule, the “RT activity % VC” value (Treatment C, 0.00168 μM, Day 7) was 45.4%, the “RT activity % VC” value (Treatment C, 0.00168 μM, Day 14) was 125.4% and the “RT activity % VC” value (Treatment C, 0.00168 μM, Day 21) was 119.1%. The “RT activity % VC” value (Treatment C, 0.00524 μM, Day 7) was 28.4%, the “RT activity % VC” value (Treatment C, 0.00524 μM, Day 14) was 74.6% and the “RT activity % VC” value (Treatment C, 0.00524 μM, Day 21) was 104.7%. The “RT activity % VC” value (Treatment C, 0.01638 μM, Day 7) was 22.1%, the “RT activity % VC” value (Treatment C, 0.01638 μM, Day 14) was 62.9% and the “RT activity % VC” value (Treatment C, 0.01638 μM, Day 21) was 119.2%. The “RT activity % VC” value (Treatment C, 0.0512 μM, Day 7) was 17.0%, the “RT activity % VC” value (Treatment C, 0.0512 μM, Day 14) was 70.5% and the “RT activity % VC” value (Treatment C, 0.0512 μM, Day 21) was 89.2%. The “RT activity % VC” value (Treatment C, 0.16 μM, Day 7) was 10.3%, the “RT activity % VC” value (Treatment C, 0.16 μM, Day 14) was 38.1% and the “RT activity % VC” value (Treatment C, 0.16 μM, Day 21) was 72.0%. For the same molecule, the “RT activity % VC” value (Treatment C, 0.5 μM, Day 7) was 8.9%, the “RT activity % VC” value (Treatment C, 0.5 μM, Day 14) was 26.8% and the “RT activity % VC” value (Treatment C, 0.5 μM, Day 21) was 90.1%. For the same molecule, the “RT activity % VC” value (Treatment C, 5.5E-05 μM, Day 7) was 88.6%, the “RT activity % VC” value (Treatment C, 5.5E-05 μM, Day 14) was 109.2% and the “RT activity % VC” value (Treatment C, 5.5E-05 μM, Day 21) was 198.4%.
